According to article PMC7582918, “A short peptide of the C-terminal class Y helices of apolipoprotein A-I has preserved functions in cholesterol efflux and in vivo metabolic control” (Scientific Reports, 2020):

How the values were obtained:
[1] = Solubility of the peptide; assay type: physicochemical; details: peptide chemically modified at the termini
Source text: (§1) A 33-mer peptide (RG33) that corresponds to the two Class Y helices (11 and 22 residues, respectively) of the C-terminal domain of ApoA-I (corresponding to regions 209–219 and 220–241 of ApoA-I, respectively) was synthesized and chemically modified at the termini for increased stability (Fig. 1a), and analyzed by SDS-PAGE (Fig. 1b; Suppl. Fig.). Such modifications are known to lead to loss of the terminal charges of the modified peptide with potential reduction in solubility. […] Moreover, the stability of the peptide was tested by incubation for up to 90 min in either PBS or human or mouse plasma followed by LC–MS analysis of the peptide in the complex mixture, or for longer time periods (up to 168 h at 5 °C or 22 °C) in PBS followed by LC-UV analysis of the pure peptide. […] The extent of degradation in plasma was assumed not to affect the in vitro and in vivo analyses made herein. Nevertheless, while not needed for the current study, further modifications aimed at prolonging the half-life of the RG33 peptide in plasma would be beneficial for therapeutic uses.
Figure 1 Peptide characterization for RG33. (a) Full peptide sequence. (b) Peptide purity as shown by Tris/Tricine SDS PAGE visualized by coomassie staining, 5 μg/well. (c) Stability of native or refolded RG33 over time in phosphate buffer, human plasma or mouse plasma. GraphPad Prism (version 8.0) (www.graphpad.com) was used. […]

[2] = Stability in PBS (LC-MS up to 90 min; LC-UV up to 168 h); assay type: physicochemical
Description: (§2) Mouse CD-1 plasma (heparin) was from Novakemi AB. Analysis was performed using LC–MS/MS, a Sciex QTRAP 6500 coupled to a Waters Acquity LC system with an attached HSS T3 2 × 50 mm column. A 5%-100% acetonitrile gradient and 0.1% formic acid was used as mobile phase.
as §1
Figure 1 Peptide characterization for RG33. (a) Full peptide sequence. (b) Peptide purity as shown by Tris/Tricine SDS PAGE visualized by coomassie staining, 5 μg/well. (c) Stability of native or refolded RG33 over time in phosphate buffer, human plasma or mouse plasma. GraphPad Prism (version 8.0) (www.graphpad.com) was used. TEXT PRINTED IN THE PICTURE: (a) RG33: MW (g/mol): 3790.42; Solubility: > 3.0 mg/ml

[3] = rHDL formation / solubilization of DMPC multilamellar vesicles, dynamic light scattering; details: 100 nm DMPC MLVs, 4 days at 24 °C, DLS
Description: 1,2-Dimyristoyl-sn-glycero-3-phosphocholine (DMPC; Avanti Polar Lipids) was formed into 100 nm multilamellar vesicles (MLV) via extrusion using the LiposoFast system (Avestin) as previously described. MLV were incubated with RG33 at indicated ratios for 4 days at 24 °C to form rHDL. The resulting particle sizes were measured by Dynamic Light Scattering using a Zetasizer APS (Malvern Instruments).
Figure 2 Peptide structure and lipid complex formation activity of RG33. (a) Circular dichroism spectroscopy of RG33 dissolved in PBS at 0.2 mg/ml. This spectrum represents the average of five measurements using five separate solutions. (b) Helical wheel analysis of residues 209 to 241 of the ApoA-I protein. One-letter code for amino acids is used and numbered 1 to 33 with start at residue 209. (c) rHDL particles were prepared by incubating the MLVs with RG33 peptide in the molar ratios noted at 24 °C for four days. Particle size distribution was analysed by DLS and frequency curves generated for RG33. Both MLVs alone (data on pure 100 nm MLVs is adapted from[15]) and lipid-free peptide are included as controls. GraphPad Prism (version 8.0) (www.graphpad.com) was used. Data represents five individual experiments.
As described above, the amphipathic organization of the RG33 peptide is expected to promote efficient lipid-binding. […]

[4] = Stability in mouse plasma (LC-MS/MS); assay type: in vitro ADME; details: mouse CD-1 plasma (heparin), incubation up to 90 min
Description: as §2, §1
Figure 1 Peptide characterization for RG33. […]

[5] = Stability in human plasma (LC-MS/MS); assay type: in vitro ADME; details: human plasma (citrate), pooled from four donors, incubation up to 90 min
Description: Peptide (lyophilized powder) produced by Red Glead AB (Lund, Sweden) was reconstituted as previously described. Peptide concentration was determined using a NanoDrop 2000c spectrophotometer (Thermo Scientific), and integrity was analysed by Tris-Tricine SDS-PAGE followed by Coomassie staining and by circular dichroism spectroscopy (CD). CD spectra were acquired on a Jasco J-810 spectropolarimeter equipped with a Jasco CDF-426S Peltier, set to 25 °C[18]. Samples were loaded into a 1 mm quartz cuvette and CD spectra acquired at 25 °C in the far-UV range 200–260 nm, with a 1 nm wavelength increment. Averages of five scans were baseline-subtracted (PBS buffer; 25 mM phosphate, 150 mM NaCl) and the alpha-helical content was calculated from the molar ellipticity at 222 nm as previously described[11],[19]. Human plasma (citrate) was from Blodcentralen at the Uppsala academic hospital and pooled from four healthy volunteer blood donors after giving informed consent for general research use. […]
A 33-mer peptide (RG33) that corresponds to the two Class Y helices (11 and 22 residues, respectively) of the C-terminal domain of ApoA-I (corresponding to regions 209–219 and 220–241 of ApoA-I, respectively) was synthesized and chemically modified at the termini for increased stability (Fig. 1a), and analyzed by SDS-PAGE (Fig. 1b; Suppl. Fig.). […]

[6] = previously shown; cited from earlier work
Source text: Circular dichroism (CD) spectroscopy (Fig. 2a) was next used to assay for peptide integrity and secondary structure. The helical content of the RG33 peptide in solution was based on the CD data and estimated to be on average 31%. This is higher than the helical content of the 190–243 ApoA-I peptide which was previously shown to be in the range of 17–21% alpha-helix[11]. A high helical content combined with an amphipathic arrangement of the helices is important for the lipid-binding function. Indeed, the binding of lipids induces formation of amphipathic helixes of the ApoA-I protein[23]. In li ...

[7] = tested on: J774 macrophages; details: previously described; cited from earlier work
Description: To analyze this, cultured J774 macrophages were loaded with isotope-labelled cholesterol, followed by incubation with RG33 (LF or LB) at specified concentrations for 2 h (Fig. 3a).

Row | Solubility [1] | Stability in PBS, shorter incubation ([2]; PBS (phosphate buffer), incubation up to 90 min, LC-MS analysis) | Stability in PBS, longer storage at 5 °C ([2]; PBS, up to 168 h (a week) at 5 °C, LC-UV analysis of the pure peptide, data not shown) | Stability in PBS, longer storage at 22 °C ([2]; PBS, up to 168 h (a week) at 22 °C, LC-UV analysis of the pure peptide, data not shown) | Solubilization of DMPC MLVs at 1:50 peptide-to-lipid molar ratio [3] | Stability in mouse plasma [4] | Stability in human plasma [5] | Substance | Helical content (alpha-helix) [6] | Fold increase in Vmax, LB vs LF [7]
1 | > 3000 µg/mL | intact | intact | intact | only partial solubilization | some degradation | some degradation | Ac-PALEDLRQGLLPVLESFKVSFLSALEEYTKKLN-NH2 [RG33] |  | 
2 |  |  |  |  |  |  |  | RG54: Peptide corresponding to amino acid residues 190–243 of ApoA-I protein (AEYHAKATEHLSTLSEKAKPALEDLRQGLLPVLESFKVSFLSALEEYTKKLNTQ; UniProt P02647 214-267, looked up, fragment) | 17–21% | twofold increase
